This note sets out measurements from ChEMBL document CHEMBL2311359, “Antiproliferative and apoptotic effects of the oxidative dimerization product of methyl caffeate on human breast cancer cells” (Bioorg Med Chem Lett, 2013).

The nature of data set [1]: Drug degradation in culture medium assessed as decarboxylation. The data set is classed as physicochemical.
The subject of data set [2] is MCF7. Put plainly: Growth inhibition of human MCF7 cells at 10 uM after 48 hrs. It counts as functional.
The subject of data set [3] is MCF7. Put plainly: Induction of apoptosis in human MCF7 cells assessed as apoptotic bubbling at 1 to 10 uM after 48 hrs by Hoechst-staining method in presence of fetal calf serum. It counts as functional, cell-based.
Data set [4] relates to MCF7. The data set can be described thus: Induction of cell cycle arrest in human MCF7 cells assessed as subG0 phase cells at 5 uM after 48 hrs by propidium iodide-staining method in presence of fetal calf serum relative to control. The data set is classed as functional.
Data set [5] concerns MCF7. The data set can be described thus: Induction of cell cycle arrest in human MCF7 cells assessed as G0/G1 phase cells at 5 uM after 48 hrs by flow cytometric analysis (reference value: 35.6%). The data set is classed as functional. (A flow cytometer gives signals particle by particle.)
Data set [6] concerns MDA-MB-231. Put plainly: Induction of cell cycle arrest in human MDA-MB-231 cells assessed as decrease in G2/M phase cells at 5 uM after 48 hrs by flow cytometric analysis relative to control. The data set is classed as functional, cell-based.
Data set [7] has as its system MDA-MB-231. The data set can be described thus: Induction of cell cycle arrest in human MDA-MB-231 cells assessed as subG0 phase cells at 5 uM after 48 hrs by propidium iodide-staining method in absence of fetal calf serum relative to control. It counts as functional.
The subject of data set [8] is MDA-MB-231. Put plainly: Induction of apoptosis in human MDA-MB-231 cells assessed as apoptotic bubbling at 1 to 10 uM after 48 hrs by Hoechst-staining method in presence of fetal calf serum. The data set is classed as functional, cell-based.
In data set [9] the test system is MDA-MB-231. Put plainly: Induction of apoptosis in human MDA-MB-231 cells assessed as apoptotic bubbling at 1 to 10 uM after 48 hrs by Hoechst-staining method in absence of fetal calf serum. It counts as functional, cell-based.
Data set [10] has as its system MCF7. Put plainly: Induction of apoptosis in human MCF7 cells after 48 hrs by Hoechst-staining method in absence of fetal calf serum. The data set is classed as functional, cell-based.
Data set [11] concerns MDA-MB-231. Put plainly: Induction of cell cycle arrest in human MDA-MB-231 cells assessed as S phase cells at 5 uM after 48 hrs by flow cytometric analysis (reference value: 40.4%). It counts as functional.
Data set [12] has as its system MDA-MB-231. Put plainly: Induction of apoptosis in human MDA-MB-231 cells assessed as pyknosis at 1 to 10 uM after 48 hrs by Hoechst-staining method in absence of fetal calf serum. The data set is classed as functional, cell-based.
For data set [13], the system named is MDA-MB-231. The data set can be described thus: Induction of apoptosis in human MDA-MB-231 cells assessed as pyknosis at 1 to 10 uM after 48 hrs by Hoechst-staining method in presence of fetal calf serum. The data set is classed as functional, cell-based.
Data set [14] concerns MCF7. The data set can be described thus: Growth inhibition of human MCF7 cells after 48 hrs in presence of fetal calf serum. The data set is classed as functional, cell-based. The conditions noted are these: MCF7, 48 h.
In data set [15] the test system is MDA-MB-231. The data set can be described thus: Induction of apoptosis in human MDA-MB-231 cells after 48 hrs by Hoechst-staining method in presence of fetal calf serum. The data set is classed as functional, cell-based.
Data set [16] deals with MDA-MB-231. Put plainly: Growth inhibition of human MDA-MB-231 cells after 48 hrs in presence of fetal calf serum. It counts as functional, cell-based. The conditions noted are these: MDA-MB-231, 48 h.
The test system of data set [17] is MDA-MB-231. The data set can be described thus: Induction of cell cycle arrest in human MDA-MB-231 cells assessed as decrease in G0/G1 phase cells at 5 uM after 48 hrs by flow cytometric analysis relative to control. It counts as functional, cell-based.
For data set [18], the system named is MCF7. The data set can be described thus: Induction of apoptosis in human MCF7 cells at 10 uM after 48 hrs by Hoechst-staining method in presence of fetal calf serum. The data set is classed as functional.
Data set [19] deals with MDA-MB-231. Put plainly: Induction of cell cycle arrest in human MDA-MB-231 cells assessed as subG0 phase cells at 5 uM after 48 hrs by propidium iodide-staining method in presence of fetal calf serum relative to control. The data set is classed as functional.
In data set [20] the test system is MCF7. Put plainly: Induction of cell cycle arrest in human MCF7 cells assessed as S/G2 phase cells at 5 uM after 48 hrs by flow cytometric analysis (reference value: 17.8%). It counts as functional.
The test system of data set [21] is MCF7. The data set can be described thus: Growth inhibition of human MCF7 cells after 48 hrs in absence of fetal calf serum. The conditions noted are these: MCF7, 48 h. It counts as functional, cell-based.
For data set [22], the system named is MCF7. Put plainly: Induction of apoptosis in human MCF7 cells assessed as pyknosis at 1 to 10 uM after 48 hrs by Hoechst-staining method in absence of fetal calf serum. The data set is classed as functional, cell-based.
Data set [23] deals with MCF7. The data set can be described thus: Induction of cell cycle arrest in human MCF7 cells assessed as subG0 phase cells at 5 uM after 48 hrs by propidium iodide-staining method in absence of fetal calf serum relative to control. The data set is classed as functional.
Data set [24] deals with MDA-MB-231. Put plainly: Growth inhibition of human MDA-MB-231 cells after 48 hrs in absence of fetal calf serum. The data set is classed as functional, cell-based. The conditions noted are these: MDA-MB-231, 48 h.
Data set [25] deals with MCF7. The data set can be described thus: Induction of apoptosis in human MCF7 cells assessed as pyknosis at 1 to 10 uM after 48 hrs by Hoechst-staining method in presence of fetal calf serum. The data set is classed as functional, cell-based.
Data set [26] relates to MCF7. The data set can be described thus: Induction of cell cycle arrest in human MCF7 cells assessed as S phase cells at 5 uM after 48 hrs by flow cytometric analysis (reference value: 46.6%). It counts as functional.
In data set [27] the test system is MCF7. Put plainly: Induction of apoptosis in human MCF7 cells after 48 hrs by Hoechst-staining method in presence of fetal calf serum. The data set is classed as functional, cell-based.
Data set [28] has as its system MDA-MB-231. The data set can be described thus: Induction of apoptosis in human MDA-MB-231 cells at 10 uM after 48 hrs by Hoechst-staining method in presence of fetal calf serum. The data set is classed as functional.
Data set [29] concerns MDA-MB-231. Put plainly: Induction of apoptosis in human MDA-MB-231 cells after 48 hrs by Hoechst-staining method in absence of fetal calf serum. It counts as functional, cell-based.
Data set [30] has as its system MCF7. The data set can be described thus: Induction of apoptosis in human MCF7 cells assessed as apoptotic bubbling at 1 to 10 uM after 48 hrs by Hoechst-staining method in absence of fetal calf serum. The data set is classed as functional, cell-based.
Data set [31] concerns T47D. Put plainly: Antiproliferative activity against human T47D cells after 5 days by MTT assay. It counts as functional, cell-based. The conditions noted are these: 120 h. (Tetrazolium dyes change colour on reduction, which living cells bring about.)
The nature of data set [32]: Drug degradation in culture medium assessed as dehydration. The data set is classed as physicochemical.

SMILES strings stand for the structures. Calls of active or inactive are those of the source. The calls are words filed in the database; no cut-off is given here.

`O=C(O)C1=Cc2cc(O)c(O)cc2[C@@H](c2ccc(O)cc2)[C@@H]1C(=O)O` (relative stereo): the Stability result in data set [1] is “Unstable”. Besides, in data set [2], the “growth inhibition (GI)” value is “Active”.

As to `CCOC(=O)C1=Cc2cc(O)c(O)cc2[C@@H](c2ccc(O)cc2)[C@@H]1C(=O)OCC` (relative stereo), the “growth inhibition (GI)” value in [2] is “Active”.

Consider `CCOC(=O)C1=Cc2cc(O)c(O)cc2[C@@H](c2ccc(O)cc2)[C@@H]1C(=O)O` (relative stereo), for which the “growth inhibition (GI)” value in data set [2] is “Active”.

Broadly, the IC50 is the concentration at which inhibition is half-maximal. Take `COC(=O)C1=Cc2cc(O)c(O)cc2[C@@H](c2ccc(O)c(O)c2)[C@@H]1C(=O)OC`: the result in data set [3], in [6], in data set [8], in [9], in data set [12] and in data set [13] was Active. Moreover, the result in [17], in [22], in [25] and in data set [30] was Active. Further, the Activity in [4] is 20%; in data set [5] it was 29.4%; in data set [7], 20%; in [10] it was “Dose-dependent effect”; in data set [11] it was 56.1%; in [15], “Dose-dependent effect”. In addition, the Activity in data set [18] was 25%; in [19], 20%; in data set [20], 17%; in data set [23], 20%; in data set [26], 34.7%; in data set [27], “Dose-dependent effect”. Also, the Activity was 25% in data set [28] and “Dose-dependent effect” in [29]. The half-maximal inhibitory concentration (IC50) in data set [14] came to 1 µM; in data set [16], 5 µM; in data set [21] it was 1 µM; in [24], 5 µM. Moreover, the inhibition of growth at 10 µM in data set [2] (MCF7, 48 h, read-out: GI) is 82%.

In the case of `COC(=O)C1=Cc2cc(OC)c(O)cc2[C@@H](c2ccc(O)c(OC)c2)[C@@H]1C(=O)OC`, the “growth inhibition (GI)” value in [2] is “inactive”.

On to `COC(=O)C1=Cc2cc(OC)c(O)c(C)c2[C@@H](c2cc(C)c(O)c(OC)c2)[C@@H]1C(=O)OC`, for which the “growth inhibition (GI)” value in data set [2] is “inactive”.

In the case of `O=C(O)/C=C/c1ccc(O)c(O)c1` [CAFFEIC ACID], in [31], the concentration for half-maximal inhibition (IC50) was 0.002 µM.

As for `COC(=O)C1C(O)c2cc(OC)c(O)c(OC)c2[C@@H](c2cc(OC)c(O)c(OC)c2)[C@@H]1C(=O)OC` (stereo partly drawn), the Stability entry in data set [32] is “Unstable”. Also, the “growth inhibition (GI)” value in [2] was “Active”.
